Usually IC50 stands for the concentration that gives 50% inhibition. As a reminder, the half-life is the time needed for the level to fall by half in the phase considered.

Series [1] relates to IDE (S10 extract or rIDE). It counts as in vitro ADME. Particulars: 20 ng sp6 or 30 ng vp6 with 5 μg S10 extract or 2 ng rIDE, up to 60 min; Western blot densitometry; at least 3 independent experiments per setting; value depends on the experimental setting. As for the experimental part:
Fig 9 Multiplication of PTAPPA-motifs stabilizes p6. 20 ng of sp6 or 30 ng of vp6 were incubated either with 5 μg S10 extract (A/B/C) or 2 ng of rIDE (D) for up to 60 min. Degradation efficiency was quantified via densitometric analyses of Western blots. Values represent the arithmetic mean ± SD of at least 3 independent experiments for each setting.
Typically 5 μg S10 were incubated with inhibitor or buffer and 20–100 ng sp6 at 37°C for 30 min. Reactions were stopped by addition of sample buffer and incubation at 95°C for 5 min. Remaining p6 was detected by Western blotting using an anti-p6 rabbit antiserum. Alternatively, 10 ng of BODIPY FL-labeled sp6 (sp6BY) were used as substrate and detected directly in the polyacrylamide gel by fluorescence scanning. In some experiments the amount of p6 was densitometrically quantified with the software AIDA (Raytest). For the in vitro degradation of amyloid-β 10 ng of Aβ-FITC (abcam) were used analogously to sp6BY. For the in vitro degradation of viral p6, VLPs were pelleted and lysed in IDE enzyme buffer (150 mM NaCl, 50 mM Tris pH 7.4, 0.5% (v/v) Triton X-100). The p6 content was estimated by Western blotting using a dilution series of sp6 with known concentrations. Equivalents of 15 ng were used for digestion experiments and subsequently detected by Western blotting. […]

In series [2] the target is T1, insulin-degrading enzyme (IDE) (Homo sapiens, UniProt P14735).
T1 construct: endogenous in cells; host or cells: HeLa cells (cytosolic S10 extract)
As to the kind of experiment: Inhibition of / competition with sp6 or sp6BY degradation in S10 extract. The format is biochemical. Particulars: 10 ng sp6BY, 5 μg S10 extract, 30 min, 37°C; fluorescence; mean of at least three independent experiments. On the procedure:
(§1) For generation of S10, confluent dishes with HeLa cells were extensively washed and subsequently lysed with a modified S10 buffer (250 mM sucrose, 80 mM KCl, 10 mM Tris pH 7.6, 0.1% (v/v) Triton X-100 [91]). Debris and nuclei were removed by centrifugation at 10.000 × g for 10 min. Protein content was determined by BCA-Assay (Pierce) and aliquots stored at -80°C.
(§2) Reactions were stopped by addition of sample buffer and incubation at 95°C for 5 min. Remaining p6 was detected by Western blotting using an anti-p6 rabbit antiserum. Alternatively, 10 ng of BODIPY FL-labeled sp6 (sp6BY) were used as substrate and detected directly in the polyacrylamide gel by fluorescence scanning. In some experiments the amount of p6 was densitometrically quantified with the software AIDA (Raytest). For the in vitro degradation of amyloid-β 10 ng of Aβ-FITC (abcam) were used analogously to sp6BY. For the in vitro degradation of viral p6, VLPs were pelleted and lysed in IDE enzyme buffer (150 mM NaCl, 50 mM Tris pH 7.4, 0.5% (v/v) Triton X-100). The p6 content was estimated by Western blotting using a dilution series of sp6 with known concentrations. Equivalents of 15 ng were used for digestion experiments and subsequently detected by Western blotting. Experiments carried out with recombinant IDE (Calbiochem) were performed in IDE enzyme buffer.
Bestatin, Chymostatin, E-64, Leupeptin, Pepstatin, Phosphoramidon, Pefabloc SC, EDTA, Aprotinin, Antipain were purchased from Roche as part of a protease inhibitors set and used at the following concentrations: 74 μM Antipain; 130 μM Bestatin; 100 μM Chymostatin; 28 μM E-64; 1 μM Leupeptin; 1 μM Pepstatin; 600 nM Phosphoramidon; 4 mM Pefabloc SC; 1.3 mM EDTA; […]. […] (Phoenix Pharmaceuticals and Tocris), TPEN (Calbiochem), and NEM (Roche) were purchased from companies indicated.

A short description of series [3]: In vitro degradation in cytosolic S10 HeLa cell extract. Particulars: human, cytosolic S10 HeLa cell extract; 100 ng sp6, 5 μg S10 extract from HeLa cells, 37°C; Western blot (anti-p6), quantified; estimated from exponential decay; mean of 4 independent experiments. It counts as in vitro ADME. As for the experimental part: as §1
Typically 5 μg S10 were incubated with inhibitor or buffer and 20–100 ng sp6 at 37°C for 30 min. Reactions were stopped by addition of sample buffer and incubation at 95°C for 5 min. Remaining p6 was detected by Western blotting using an anti-p6 rabbit antiserum. Alternatively, 10 ng of BODIPY FL-labeled sp6 (sp6BY) were used as substrate and detected directly in the polyacrylamide gel by fluorescence scanning. In some experiments the amount of p6 was densitometrically quantified with the software AIDA (Raytest). For the in vitro degradation of amyloid-β 10 ng of Aβ-FITC (abcam) were used analogously to sp6BY. For the in vitro degradation of viral p6, VLPs were pelleted and lysed in IDE enzyme buffer (150 mM NaCl, 50 mM Tris pH 7.4, 0.5% (v/v) Triton X-100). The p6 content was estimated by Western blotting using a dilution series of sp6 with known concentrations. Equivalents of 15 ng were used for digestion experiments and subsequently detected by Western blotting. Experiments carried out with recombinant IDE (Calbiochem) were performed in IDE enzyme buffer. Recombinant FITC-labeled insulin was purchased from Sigma.

The next series addresses T2, recombinant IDE (rIDE) (Rattus norvegicus, UniProt P35559).
T2 construct: purchased Calbiochem
As to the kind of experiment: In vitro degradation by recombinant IDE (extent, kinetics, cleavage sites). The note with it: 30 min, 37°C. It counts as biochemical. On the procedure:
(A) 10 ng of sp6BY or insulin-FITC were incubated with indicated amounts of rIDE for 30 min at 37°C. Remaining amounts of sp6BY and insulin-FITC were detected by measurement of fluorescence excitation. (B) Results of four independently performed experiments. Values represent the arithmetic mean ± SD. (C) Increasing concentrations of sp6BY were incubated with rIDE for 10 min at 37°C. The velocities were calculated from the degradation of sp6BY and normalized for the amount of rIDE. Data points represent values from three independent experiments in a double-reciprocal Lineweaver-Burk plot.
Fig 8 Generation of stable p6 mutants. […] Reactions were stopped by adjusting the samples to 0.3% (w/v) […] and subsequently analyzed by mass spectrometry. Arrows above the primary sequence represent the detected cleavage sites, and initial and secondary cleavage sites are indicated as big or small arrows, respectively. […] (C) 10 ng of sp6BY were incubated with 250 μg/ml sp6 wt, 2xPTAPPA, 3xPTAPPA or only buffer and 5 μg S10 for 30 min at 37°C. sp6BY was detected by fluorescence emission and quantified. […]
Typically 5 μg S10 were incubated with inhibitor or buffer and 20–100 ng sp6 at 37°C for 30 min. […] Remaining p6 was detected by Western blotting using an anti-p6 rabbit antiserum. […] In some experiments the amount of p6 was densitometrically quantified with the software AIDA (Raytest). […]

In series [4] the target is T1, insulin-degrading enzyme (IDE). As to the kind of experiment: Inhibition of Aβ-FITC degradation in S10 extract. The format is biochemical. Particulars: 10 ng FITC-labeled Aβ 1–40, 5 μg S10, 45 min, 37°C; fluorescence; four independent experiments. As for the experimental part: as §2, with “[…] Reactions” for “Reactions”, “buffer. Recombinant FITC-labeled insulin was purchased from Sigma.” for “buffer.”
Supplementary file pone.0174254.s003.tif: S3 Fig p6 competes with the in vitro degradation of Aβ. […] Aβ-FITC was detected by measurement of fluorescence excitation. The band marked with * represents Aβ-oligomers and has been described earlier. (B) Band intensities were quantified for four independent experiments and values represent the arithmetic mean ± SD. […]

T1 sequence (P14735 whole entry): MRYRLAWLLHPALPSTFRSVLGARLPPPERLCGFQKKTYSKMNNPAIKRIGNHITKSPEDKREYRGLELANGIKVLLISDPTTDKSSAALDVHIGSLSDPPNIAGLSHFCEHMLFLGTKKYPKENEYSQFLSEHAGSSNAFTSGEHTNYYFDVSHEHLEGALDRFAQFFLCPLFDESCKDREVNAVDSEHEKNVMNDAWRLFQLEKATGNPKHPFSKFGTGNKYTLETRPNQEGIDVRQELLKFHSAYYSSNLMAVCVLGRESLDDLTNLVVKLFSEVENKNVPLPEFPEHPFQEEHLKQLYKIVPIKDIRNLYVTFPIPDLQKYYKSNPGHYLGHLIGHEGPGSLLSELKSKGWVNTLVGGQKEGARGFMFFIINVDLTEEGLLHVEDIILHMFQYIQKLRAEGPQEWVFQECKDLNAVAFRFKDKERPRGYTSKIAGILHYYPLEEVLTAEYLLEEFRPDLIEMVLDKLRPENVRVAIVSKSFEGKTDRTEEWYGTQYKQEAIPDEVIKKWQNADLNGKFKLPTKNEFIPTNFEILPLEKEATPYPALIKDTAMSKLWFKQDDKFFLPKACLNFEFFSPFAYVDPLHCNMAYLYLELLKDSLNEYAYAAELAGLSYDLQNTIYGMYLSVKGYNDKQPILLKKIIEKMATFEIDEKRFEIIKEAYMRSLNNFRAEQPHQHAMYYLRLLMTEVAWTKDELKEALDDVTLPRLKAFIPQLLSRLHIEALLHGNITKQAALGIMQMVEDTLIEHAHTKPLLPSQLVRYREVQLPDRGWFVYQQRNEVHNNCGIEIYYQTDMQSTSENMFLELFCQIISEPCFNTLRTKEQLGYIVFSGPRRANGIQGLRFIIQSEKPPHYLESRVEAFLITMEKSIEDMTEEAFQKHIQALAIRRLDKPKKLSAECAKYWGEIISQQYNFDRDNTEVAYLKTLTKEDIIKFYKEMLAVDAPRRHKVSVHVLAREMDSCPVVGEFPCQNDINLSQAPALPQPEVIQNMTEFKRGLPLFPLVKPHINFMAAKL
T2 sequence (P35559 whole entry): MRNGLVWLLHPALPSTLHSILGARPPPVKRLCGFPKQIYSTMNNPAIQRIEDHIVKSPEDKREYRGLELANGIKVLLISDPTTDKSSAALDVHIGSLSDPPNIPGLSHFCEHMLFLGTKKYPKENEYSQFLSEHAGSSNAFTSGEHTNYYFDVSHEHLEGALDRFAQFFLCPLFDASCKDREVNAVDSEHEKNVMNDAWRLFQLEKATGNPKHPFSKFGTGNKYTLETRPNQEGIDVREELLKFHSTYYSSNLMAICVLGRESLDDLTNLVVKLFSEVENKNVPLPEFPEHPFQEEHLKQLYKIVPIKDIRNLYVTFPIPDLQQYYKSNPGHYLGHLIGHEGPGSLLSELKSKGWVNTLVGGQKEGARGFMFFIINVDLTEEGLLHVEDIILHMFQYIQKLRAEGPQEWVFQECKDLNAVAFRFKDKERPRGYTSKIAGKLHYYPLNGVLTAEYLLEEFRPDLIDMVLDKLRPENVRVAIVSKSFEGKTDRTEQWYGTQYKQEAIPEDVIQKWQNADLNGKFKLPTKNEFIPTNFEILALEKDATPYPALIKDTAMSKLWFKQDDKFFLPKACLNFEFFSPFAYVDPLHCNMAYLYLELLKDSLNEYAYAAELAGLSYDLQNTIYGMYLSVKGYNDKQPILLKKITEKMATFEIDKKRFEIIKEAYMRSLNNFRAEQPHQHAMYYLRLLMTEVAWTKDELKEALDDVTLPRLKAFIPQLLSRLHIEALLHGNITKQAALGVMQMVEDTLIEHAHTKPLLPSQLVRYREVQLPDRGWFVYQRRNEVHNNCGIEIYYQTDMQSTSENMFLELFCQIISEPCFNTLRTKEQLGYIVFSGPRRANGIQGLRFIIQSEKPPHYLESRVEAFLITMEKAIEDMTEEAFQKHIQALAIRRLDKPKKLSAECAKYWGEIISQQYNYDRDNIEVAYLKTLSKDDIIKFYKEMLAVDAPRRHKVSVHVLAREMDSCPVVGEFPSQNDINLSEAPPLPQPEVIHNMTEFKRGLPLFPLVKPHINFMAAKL

Take `CC[C@H](C)[C@H](NC(=O)[C@@H]1CCCN1C(=O)[C@H](CCC(=O)O)NC(=O)[C@H](CCC(N)=O)NC(=O)[C@H](CCCCN)NC(=O)[C@H](CCC(N)=O)NC(=O)[C@H](CO)NC(=O)[C@@H]1CCCN1C(=O)[C@@H](NC(=O)[C@@H](NC(=O)[C@@H](NC(=O)[C@H](CCC(=O)O)NC(=O)[C@H](CCC(=O)O)NC(=O)CNC(=O)[C@H](Cc1ccccc1)NC(=O)[C@H](CCCNC(=N)N)NC(=O)[C@H](Cc1ccccc1)NC(=O)[C@H](CO)NC(=O)[C@H](CCC(=O)O)NC(=O)[C@H](C)NC(=O)[C@@H]1CCCN1C(=O)[C@@H]1CCCN1C(=O)[C@H](C)NC(=O)[C@@H](NC(=O)[C@@H]1CCCN1C(=O)[C@H](C)NC(=O)[C@@H]1CCCN1C(=O)[C@@H]1CCCN1C(=O)[C@H](C)NC(=O)[C@@H](NC(=O)[C@@H]1CCCN1C(=O)[C@H](CCC(=O)O)NC(=O)[C@@H]1CCCN1C(=O)[C@H](CCCNC(=N)N)NC(=O)[C@H](CO)NC(=O)[C@H](CCC(N)=O)NC(=O)[C@@H](N)CC(C)C)[C@@H](C)O)[C@@H](C)O)[C@@H](C)O)[C@@H](C)O)[C@@H](C)O)C(=O)N[C@@H](CC(=O)O)C(=O)N[C@@H](CCCCN)C(=O)N[C@@H](CCC(=O)O)C(=O)N[C@@H](CC(C)C)C(=O)N[C@@H](Cc1ccc(O)cc1)C(=O)N1CCC[C@H]1C(=O)N[C@@H](CC(C)C)C(=O)N[C@@H](C)C(=O)N[C@@H](CO)C(=O)N[C@@H](CC(C)C)C(=O)N[C@@H](CCCNC(=N)N)C(=O)N[C@@H](CO)C(=O)N[C@@H](CC(C)C)C(=O)N[C@@H](Cc1ccccc1)C(=O)NCC(=O)N[C@@H](CO)C(=O)N[C@@H](CC(=O)O)C(=O)N1CCC[C@H]1C(=O)N[C@@H](CO)C(=O)N[C@@H](CO)C(=O)N[C@@H](CCC(N)=O)C(=O)O` [2x]: the “half-life in in vitro degradation assays” value in series [1] is “up to 30 min”.

On to `CC[C@H](C)[C@H](NC(=O)[C@@H]1CCCN1C(=O)[C@H](CCC(=O)O)NC(=O)[C@H](CCC(N)=O)NC(=O)[C@H](CCCCN)NC(=O)[C@H](CCC(N)=O)NC(=O)[C@H](CO)NC(=O)[C@@H]1CCCN1C(=O)[C@@H](NC(=O)[C@@H](NC(=O)[C@@H](NC(=O)[C@H](CCC(=O)O)NC(=O)[C@H](CCC(=O)O)NC(=O)CNC(=O)[C@H](Cc1ccccc1)NC(=O)[C@H](CCCNC(=N)N)NC(=O)[C@H](Cc1ccccc1)NC(=O)[C@H](CO)NC(=O)[C@H](CCC(=O)O)NC(=O)[C@H](CCC(=O)O)NC(=O)[C@@H]1CCCN1C(=O)[C@@H]1CCCN1C(=O)[C@H](C)NC(=O)[C@@H](NC(=O)[C@@H]1CCCN1C(=O)[C@H](CCC(=O)O)NC(=O)[C@@H]1CCCN1C(=O)[C@H](CCCNC(=N)N)NC(=O)[C@H](CO)NC(=O)[C@H](CCC(N)=O)NC(=O)[C@@H](N)CC(C)C)[C@@H](C)O)[C@@H](C)O)[C@@H](C)O)[C@@H](C)O)C(=O)N[C@@H](CC(=O)O)C(=O)N[C@@H](CCCCN)C(=O)N[C@@H](CCC(=O)O)C(=O)N[C@@H](CC(C)C)C(=O)N[C@@H](Cc1ccc(O)cc1)C(=O)N1CCC[C@H]1C(=O)N[C@@H](CC(C)C)C(=O)N[C@@H](C)C(=O)N[C@@H](CO)C(=O)N[C@@H](CC(C)C)C(=O)N[C@@H](CCCNC(=N)N)C(=O)N[C@@H](CO)C(=O)N[C@@H](CC(C)C)C(=O)N[C@@H](Cc1ccccc1)C(=O)NCC(=O)N[C@@H](CO)C(=O)N[C@@H](CC(=O)O)C(=O)N1CCC[C@H]1C(=O)N[C@@H](CO)C(=O)N[C@@H](CO)C(=O)N[C@@H](CCC(N)=O)C(=O)O` [sp6], for which the IC50 is roughly 30.1 µM in series [2] and 13.8 µM in series [4]. Moreover, in series [3], the half-life was roughly 10 min. Besides, at recombinant IDE (rIDE) (10 ng rIDE, IDE enzyme buffer, 10 ng sp6BY (fluorescence) or VLP/virion lysate (Western blot)), the “degradation by recombinant IDE” value is recorded as “degraded by recombinant IDE”.

Take “insulin-FITC: recombinant FITC-labeled insulin (Sigma)”: the “amount of rIDE required to cleave with the same efficiency, relative to sp6” value with recombinant IDE (rIDE) (10 ng insulin-FITC, fluorescence, four independent experiments) was 100 fold.
